The values below come from US7105576B2, “Synergistic effects of nuclear transcription factor NF-κB inhibitors and anti-neoplastic agents” (priority 2002, dated 2006).

Series [1] concerns NF-κB. The experiment in a line: EMSA of TNF-dependent NF-κB activation in MDA-MB 435 cells. It is filed as cell-based, human. As to conditions: curcumin 0 to 50 μM 4 h, then 0.1 nM TNF 30 min. Background: In EMSA bound probe runs differently from free probe, usually more slowly.
Protocol: MCF-7 cells treated with 0 and 0.1 nM TNF was included as negative and positive control. […] The nuclear extracts were prepared and analyzed by EMSA. The specificity of NF-κB can be examined by supershift analysis using antibodies against p50 and p65 subunits of NF-κB as described (109).
Series [2] concerns MDA-MB-435 breast cancer cells. Description: Breast cancer metastasis after primary tumor removal, mammary fatpad xenograft. It is filed as in vivo, female nude mice. Conditions: for Incidence of macroscopic lung metastases / Median range of mets: 5 weeks after tumor removal; for Incidence of macroscopic lung metastases: paclitaxel 10 mg/kg i.p. day 10, 17, 24, 2% curcumin (w/w) diet; for Mean tumor Weight: MDA-MB-435 mammary fatpad tumors in nude mice; for Mean tumor Weight / Median range of mets: paclitaxel 10 mg/kg i.p., 2% curcumin diet; for Median range of mets: number of macroscopic lung metastases. Here is the method:
Human breast cancer cells (MDA-MB-231 or MDA-MB-435) that express constitutively active NF-κB can be injected into the mammary fatpad of female nude mice as previously described (127). […] Two millions MDA-MB-435 breast cancer cells were injected into the mammary fatpad of female nude mice. […] The treatment continue for up to 5 weeks after tumor removal, at which time the mice were killed and the number of visible metastases and presence of recurrent tumors or metastases in other organs were recorded. The lungs were fixed in 10% buffered formalin and paraffin-embedded section were stained with H&E to determine the incidence of micrometastases, or with antibodies recognizing the p65 subunit of NF-κB and HER2/neu. […] The significance of differences in the incidence of lung metastasis in the different groups was assessed using Fisher's exact test.

The test system of series [3] is BT20, SKBR3, MCF-7, T47D, and ZR75-1. Conditions: reference 63; cited from earlier work.
Series [4] deals with NF-κB. Description: EMSA of paclitaxel-induced NF-κB activation in MCF-7 cells. It is filed as cell-based, human. As to conditions: curcumin pretreatment 2 h, then taxol 30 μM 12 hrs, EMSA of nuclear extract.
Protocol: Nuclear extract was prepared and EMSA performed using 8 μg of nuclear protein. […] The nuclear extracts were prepared and analyzed by EMSA. The specificity of NF-κB can be examined by supershift analysis using antibodies against p50 and p65 subunits of NF-κB as described (109).
A further series concerns MCF-7 cells. Description: Cell viability by the MTT method. Type of series: cell-based, human. Conditions: taxol 10 μM with or without curcumin 10 μM, 72 h. (In general: Tetrazolium dyes change colour on reduction, which living cells bring about.)

With `COc1cc(/C=C/C(=O)CC(=O)/C=C/c2ccc(O)c(OC)c2)ccc1O` [Curcumin, diferuloylmethane], the “TNF-dependent NF-κB activation” value in the series with NF-κB [1] is on record as “inhibited TNF-dependent NF-κB activation”. Further, in series [2], the “Incidence of macroscopic lung metastases” value was 71%, the “Mean tumor Weight” value was determined as 0.71 ± 0.3 g and the “Median range of mets” value was 5 (0–44). Besides, in series [2] (mouse xenograft model, Table 1 and FIG. 5), the “effect on breast cancer metastases to the lung” value was “enhances the effect of paclitaxel and suppresses breast cancer metastases to the lung”. Besides, the “Growth of breast tumor cell lines” value in series [3] is recorded as “completely inhibited”. For the same compound, in the series with NF-κB [4], the “paclitaxel-induced NF-κB induction” value was “downregulated paclitaxel-induced NF-κB induction in MCF-7 cells in a dose dependent manner”. Besides, the “cytotoxic effects of paclitaxel (cell viability, MTT)” value with MCF-7 cells is “enhances the cytotoxic effects of paclitaxel”.
Turning to `CC(=O)O[C@H]1C(=O)[C@@]2(C)[C@H]([C@H](OC(=O)c3ccccc3)[C@]3(O)C[C@H](OC(=O)[C@H](O)[C@@H](NC(=O)c4ccccc4)c4ccccc4)C(C)=C1C3(C)C)[C@]1(OC(C)=O)CO[C@@H]1C[C@@H]2O` [paclitaxel, Paclitaxel], in series [2], the “Incidence of macroscopic lung metastases” value turned out to be 83%, the “Mean tumor Weight” value amounted to 0.74 ± 0.4 g and the “Median range of mets” value is on record as 20 (0–>100).
